“And” between values parts separate entries of the source, which are not always exact repeats. Identical values can stand only once. Counter-ions that a name gives are not always drawn.
What follows are compounds tested against T1, recombinant human beta tryptase (Homo sapiens, UniProt P20231) (assay: beta-Tryptase inhibition, chromogenic enzyme assay (substrate S2366, read at 405 nm)). Conditions: Ki calculated from IC50: Ki=IC50/(1+[Substrate]/Km); 0.5 mM substrate, room temperature; read-out: Tryptase Ki.
T1 construct: made in house; host or cells: yeast cells
Assay type: biochemical
From the text: Inhibition of this catalytic activity may be measured by the in vitro enzyme assay and the cellular assay.
Tryptase inhibition activity is confirmed using either isolated human lung tryptase or recombinant human beta tryptase expressed in yeast cells. Essentially equivalent results are obtained using isolated native enzyme or the expressed enzyme. The assay procedure employs a 96 well microplate (Costar 3590) using L-pyroglutamyl-L-prolyl-L-arginine-para-nitroanilide (S2366: Quadratech) as substrate (essentially as described by McEuen et. al. Biochem Pharm, 1996, 52, pages 331-340). Assays are performed at room temperature using 0.5 mM substrate (2×Km) and the microplate is read on a microplate reader (Beckman Biomek Plate reader) at 405 nm wavelength.
Materials and Methods for Tryptase primary screen (Chromogenic assay)
S2366 (Stock solutions of 2.5 mM).
Purified recombinant beta Tryptase Stocks of 310 μg/mL. Protocol (Single point determination) • Add 60 μL of diluted substrate (final concentration of 500 μM in assay buffer) to each well • Add compound in duplicates, final concentration of 20 volume 20 • Add enzyme at a final concentration of 50 ng/mL in a volume of 20 • Total volume for each well is 100 • Agitate briefly to mix and incubate at room temp in the dark for 30 minutes • Read absorbencies at […] Each plate has the following controls: • Totals: 60 μL of substrate, 20 μL of buffer (with 0.2% final concentration of DMSO), • 20 μL of enzyme Non-specific: 60 μL of substrate, 40 μL of buffer (with 0.2% DMSO) Totals: 60 μL of substrate, 20 μL of buffer (No DMSO), 20 μL of enzyme Non-specific: 60 μL of substrate, 40 μL of buffer (No DMSO) Protocol (IC50 and Ki determination)
The protocol is essentially the same as above except that the compound is added in duplicates at the following final concentrations: 0.01, 0.03, 0.1, 0.3, 1, 3, 10 μM (All dilutions carried out manually). For every assay, whether single point or IC50 determination, a standard compound is used to derive IC50 for comparison. From the IC50 value, the Ki can be calculated using the following formula: Ki=IC50/(1+[Substrate]/Km).

T1 sequence (P20231 31-275): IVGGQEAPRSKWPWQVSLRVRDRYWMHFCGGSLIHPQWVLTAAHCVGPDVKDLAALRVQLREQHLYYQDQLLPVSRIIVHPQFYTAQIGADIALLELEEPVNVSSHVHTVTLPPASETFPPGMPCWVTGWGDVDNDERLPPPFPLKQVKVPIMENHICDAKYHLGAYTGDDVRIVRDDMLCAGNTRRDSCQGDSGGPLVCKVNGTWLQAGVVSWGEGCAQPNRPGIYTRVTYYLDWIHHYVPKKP

Q: With `CCN(CC)CCn1cc(C(=O)N2CCC(c3cc(CN)ccc3F)CC2)c2ccccc21` [Example 37, [4-(5-Aminomethyl-2-fluoro-phenyl)-piperidin-1-yl]-[1-(2-diethylamino-ethyl)-1H-indol-3-yl]-methanone dihydrochloride] as the compound, how does the Ki read?
A: 87 nM

Q: `NCc1ccc(F)c(C2CCN(C(=O)c3cn(CCN4CCCC4)c4ccccc34)CC2)c1` [Example 38, [4-(5-Aminomethyl-2-fluoro-phenyl)-piperidin-1-yl]-[1-(2-pyrrolidin-1-yl-ethyl)-1H-indol-3-yl]-methanone dihydrochloride] was tested. Which Ki did it give?
A: 66 nM

Q: With `NCc1ccc(F)c(C2CCN(C(=O)c3cn(CCc4ccccn4)c4ccccc34)CC2)c1` [Example 40, [4-(5-Aminomethyl-2-fluoro-phenyl)-piperidin-1-yl]-[1-(2-pyridin-2-yl-ethyl)-1H-indol-3-yl]-methanone dihydrochloride] as the compound, how does the Ki read?
A: 25 nM

Q: With `NCc1ccc(F)c(C2CCN(C(=O)c3cn(CCN4CCCCC4)c4ccccc34)CC2)c1` [Example 41, [4-(5-Aminomethyl-2-fluoro-phenyl)-piperidin-1-yl]-[1-(2-piperidin-1-yl-ethyl)-1H-indol-3-yl]-methanone dihydrochloride] as the compound, how does the Ki read?
A: 62 nM

Q: `COCCn1cc(C(=O)N2CCC(c3cc(CN)ccc3F)CC2)c2c(Cl)cccc21` [Example 42, [4-(5-Aminomethyl-2-fluoro-phenyl)-piperidin-1-yl]-[4-chloro-1-(2-methoxy-ethyl)-1H-indol-3-yl]-methanone] was tested. Which Ki did it give?
A: 123 nM

Same assay, conditions: Tryptase Ki (nM), Ki calculated from IC50: Ki=IC50/(1+[Substrate]/Km); 0.5 mM substrate, room temperature

Q: `CNC(=O)COc1ccc(CN)cc1C1CCN(C(=O)c2cn(CCOC)c3c(OC(F)(F)F)cccc23)CC1` [Example 28, 2-(4-Aminomethyl-2-{1-[1-(2-methoxy-ethyl)-7-trifluoromethoxy-1H-indole-3-carbonyl]-piperidin-4-yl}-phenoxy)-N-methyl-acetamide hydrochloride] was tested. Which Ki did it give?
A: 538 nM

Q: How did the Ki turn out when `COCCn1cc(C(=O)N2CCC(c3cc(CN)ccc3OCC(=O)N(C)C)CC2)c2cccc(OC(F)(F)F)c21` [Example 29, 2-(4-Aminomethyl-2-{1-[1-(2-methoxy-ethyl)-7-trifluoromethoxy-1H-indole-3-carbonyl]-piperidin-4-yl}-phenoxy)-N,N-dimethyl-acetamide hydrochloride] was run?
A: 331 nM

Q: `CN1CCCCC1CCn1cc(C(=O)N2CCC(c3cc(CN)ccc3F)CC2)c2ccccc21` (centres unmarked) [Example 30, [4-(5-Aminomethyl-2-fluoro-phenyl)-piperidin-1-yl]-{1-[2-(1-methyl-piperidin-2-yl)-ethyl]-1H-indol-3-yl}-methanone dihydrochloride] was tested. Which Ki did it give?
A: 50 nM

Q: `COCCn1cc(C(=O)N2CCC(c3cc(CN)ccc3OCC(N)=O)CC2)c2cccc(C)c21` [Example 31, 2-(4-Aminomethyl-2-{1-[1-(2-methoxy-ethyl)-7-methyl-1H-indole-3-carbonyl]-piperidin-4-yl}-phenoxy)-acetamide hydrochloride] was tested. Which Ki did it give?
A: 306 nM

Q: How did the Ki turn out when `COCCn1cc(C(=O)N2CCC(c3cc(CN)ccc3OCC(N)=O)CC2)c2cccc(OC(F)(F)F)c21` [Example 32, 2-(4-Aminomethyl-2-{1-[1-(2-methoxy-ethyl)-7-trifluoromethoxy-1H-indole-3-carbonyl]-piperidin-4-yl}-phenoxy)-acetamide hydrochloride] was run?
A: 1280 nM

Q: Which Ki does the source give for `NCc1ccc(F)c(C2CCN(C(=O)c3cn(CCCF)c4c(OC(F)(F)F)cccc34)CC2)c1` [Example 34, [4-(5-Aminomethyl-2-fluoro-phenyl)-piperidin-1-yl]-[1-(3-fluoro-propyl)-7-trifluoromethoxy-1H-indol-3-yl]-methanone hydrochloride] here?
A: 1010 nM

Q: How did the Ki turn out when `NCc1ccc(F)c(C2CCN(C(=O)c3cn(CCc4ccncc4)c4ccccc34)CC2)c1` [Example 35, [4-(5-Aminomethyl-2-fluoro-phenyl)-piperidin-1-yl]-[1-(2-pyridin-4-yl-ethyl)-1H-indol-3-yl]-methanone dihydrochloride] was run?
A: 8.6 nM

Q: How did the Ki turn out when `COCCn1cc(C(=O)N2CCC(c3cc(CN)ccc3F)CC2)c2cccc(F)c21` [Example 39, [4-(5-Aminomethyl-2-fluoro-phenyl)-piperidin-1-yl]-[7-fluoro-1-(2-methoxy-ethyl)-1H-indol-3-yl]-methanone hydrochloride] was run?
A: 10 nM

Q: Which Ki does the source give for `CCCCn1cc(C(=O)N2CCC(c3cc(CN)ccc3F)CC2)c2cccc(OC(F)(F)F)c21` [Example 43, [4-(5-Aminomethyl-2-fluoro-phenyl)-piperidin-1-yl]-(1-butyl-7-trifluoromethoxy-1H-indol-3-yl)-methanone hydrochloride] here?
A: 850 nM

Q: `COCCn1cc(C(=O)N2CCC(c3cc(CN)ccc3F)CC2)c2c(C)cccc21` [Example 44, [4-(5-Aminomethyl-2-fluoro-phenyl)-piperidin-1-yl]-[1-(2-methoxy-ethyl)-4-methyl-1H-indol-3-yl]-methanone hydrochloride] was tested. Which Ki did it give?
A: 51 nM

Q: For `NCc1ccc(F)c(C2CCN(C(=O)c3cn(CC(F)(F)c4ccccc4)c4ccccc34)CC2)c1` [Example 45, [4-(5-Aminomethyl-2-fluoro-phenyl)-piperidin-1-yl]-[1-(2,2-difluoro-2-phenyl-ethyl)-1H-indol-3-yl]-methanone hydrochloride], which Ki is on record?
A: 753 nM

Q: `CCCCn1cc(C(=O)N2CCC(c3cc(CN)ccc3F)CC2)c2c(OC)cccc21` [Example 46, [4-(5-Aminomethyl-2-fluoro-phenyl)-piperidin-1-yl]-(1-butyl-4-methoxy-1H-indol-3-yl)-methanone hydrochloride] was tested. Which Ki did it give?
A: 94 nM

Q: With `COCCn1cc(C(=O)N2CCC(c3cc(CN)ccc3F)CC2)c2c(OC)cccc21` [Example 47, [4-(5-Aminomethyl-2-fluoro-phenyl)-piperidin-1-yl]-[4-methoxy-1-(2-methoxy-ethyl)-1H-indol-3-yl]-methanone hydrochloride] as the compound, how does the Ki read?
A: 56 nM and 59 nM

Q: With `COCCn1cc(C(=O)N2CCC(c3cc(CN)ccc3F)CC2)c2c(Br)cccc21` [Example 48, [4-(5-Aminomethyl-2-fluoro-phenyl)-piperidin-1-yl]-[4-bromo-1-(2-methoxy-ethyl)-1H-indol-3-yl]-methanone hydrochloride] as the compound, how does the Ki read?
A: 125 nM

Q: `NCc1ccc(F)c(C2CCN(C(=O)c3cn4c5c(cccc35)OCC4)CC2)c1` [Example 49, [4-(5-Aminomethyl-2-fluoro-phenyl)-piperidin-1-yl]-(2,3-dihydro-pyrrolo[1,2,3-de]-1,4-benzoxazin-6-yl)-methanone hydrochloride] was tested. Which Ki did it give?
A: 291 nM

Q: With `CC(C)(O)CCn1cc(C(=O)N2CCC(c3cc(CN)ccc3F)CC2)c2ccccc21` [Example 50, [4-(5-Aminomethyl-2-fluoro-phenyl)-piperidin-1-yl]-[1-(3-hydroxy-3-methyl-butyl)-1H-indol-3-yl]-methanone hydrochloride] as the compound, how does the Ki read?
A: 241 nM

Q: How did the Ki turn out when `COCCn1cc(C(=O)N2CCC(c3cc(CN)ccc3F)CC2)c2c(F)cccc21` [Example 51, [4-(5-Aminomethyl-2-fluoro-phenyl)-piperidin-1-yl]-[4-fluoro-1-(2-methoxy-ethyl)-1H-indol-3-yl]-methanone hydrochloride] was run?
A: 54 nM

Same assay, conditions: Tryptase Ki, cell prints its own unit uM under a head in nM

Q: For `COCCn1cc(C(=O)N2CCC(c3cc(CN)ccc3OCC(=O)O)CC2)c2cccc(C)c21` [Example 33, (4-Aminomethyl-2-{1-[1-(2-methoxy-ethyl)-7-methyl-1H-indole-3-carbonyl]-piperidin-4-yl}-phenoxy)-acetic acid hydrochloride], which Ki is on record?
A: > 10000 nM
